# From US10201546B2, “Quinolinyl modulators of RORγt” (Janssen Pharmaceutica NV, priority 2013, dated 2019)
# Counter-ions that a name gives are not always drawn. Like-named read-outs stand apart in the source and are kept apart here.
# What was measured:
# [1] = tested on: IL-17 production by CD4+ T cells under conditions which favor Th17 differentiation; experiment: Human Th17 assay (IL-17 production by CD4 T cells); format: cell-based
# [2] = target: human RORγt LBD fused to the DNA binding domain of the GAL4 protein (Homo sapiens (Human), UniProt P51449); experiment: RORγt (LBD) reporter assay in HEK293T cells; format: cell-based; design: RORγt (LBD) Reporter Assay, % inhibition: dose or concentration left out as unconfirmed; conditions: for inhibition at 6 µM: HEK-293T, read-out: RORγt (LBD) Reporter Assay, % inhibition @ 6 μM, @ 6 μM
# [3] = target: human RORγt ligand binding domain (RORγt LBD) (Homo sapiens (Human), UniProt P51449); experiment: RORγt ThermoFluor assay (thermal shift, binding affinity Kd)
# [4] = read-out: ThermoFluor Assay, Kd
# [5] = read-out: ThermoFluor ® Assay, Kd
# human RORγt LBD fused to the DNA binding domain of the GAL4 protein, sequence (P51449 258-518): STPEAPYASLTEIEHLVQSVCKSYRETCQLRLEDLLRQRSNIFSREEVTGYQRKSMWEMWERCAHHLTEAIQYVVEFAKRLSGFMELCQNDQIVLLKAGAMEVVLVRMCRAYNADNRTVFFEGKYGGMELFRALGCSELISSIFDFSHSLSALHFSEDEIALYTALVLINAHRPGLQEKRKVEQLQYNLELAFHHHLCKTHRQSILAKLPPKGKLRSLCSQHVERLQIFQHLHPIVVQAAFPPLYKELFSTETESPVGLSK
# human RORγt ligand binding domain (RORγt LBD), sequence (P51449 other isoform, or with tags, fused parts or gaps): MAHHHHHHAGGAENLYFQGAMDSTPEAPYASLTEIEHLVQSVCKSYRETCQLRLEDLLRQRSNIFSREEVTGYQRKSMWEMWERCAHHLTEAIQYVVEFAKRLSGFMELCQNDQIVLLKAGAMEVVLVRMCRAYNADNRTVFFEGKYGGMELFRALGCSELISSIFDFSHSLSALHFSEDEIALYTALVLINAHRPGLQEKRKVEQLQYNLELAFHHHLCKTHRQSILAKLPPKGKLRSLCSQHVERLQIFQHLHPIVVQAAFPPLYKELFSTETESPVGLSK
Compound,IC50 [2],inhibition at 6 µM [2],"Kd [3, 4]",IC50 ([1]; Homo sapiens),also measured
"CC(C)(C)c1c(/C=C/c2ccccc2)nc2ccc(C(O)(c3cccnc3)c3cccc(Cl)c3)cc2c1Cl (stereo not drawn) [Example 27, {3-tert-Butyl-4-chloro-2-[(E)-2-phenylethenyl]quinolin-6-yl}(3-chlorophenyl)pyridin-3-ylmethanol.TFA]",–,–,–,~3000 nM,–
"COc1nc2ccc(C(O)(c3ccc(Cl)cc3)c3cncn3C)cc2c(Cl)c1OC(C)C (single isomer, unassigned) [Example 99b, [4-Chloro-2-methoxy-3-(1-methylethoxy)quinolin-6-yl](4-chlorophenyl)(1-methyl-1H-imidazol-5-yl)methanol]",–,–,–,1200 nM,–
"Cn1cncc1C(O)(c1ccc(C(F)(F)F)nc1)c1ccc2nc(N3CCC3)c(OCC3CC3)c(Cl)c2c1 (single isomer, unassigned) [Example 87c, [2-Azetidin-1-yl-4-chloro-3-(cyclopropylmethoxy)quinolin-6-yl](1-methyl-1H-imidazol-5-yl)[6-(trifluoromethyl)pyridin-3-yl]methanol]",–,–,–,120 nM,–
"COc1nc2ccc(C(O)(c3ccc(Cl)cc3)c3cncn3C)cc2c(Cl)c1CN1CCC(n2cccn2)CC1 (single isomer, unassigned) [Example 101c, (3-((4-(1H-Pyrazol-1-yl)piperidin-1-yl)methyl)-4-chloro-2-methoxyquinolin-6-yl)(4-chlorophenyl)(1-methyl-1H-imidazol-5-yl)methanol]",–,–,–,360 nM,–
"Cn1cncc1C(O)(c1ccc(Cl)cc1)c1ccc2nc(N3CCC3)c(OCC(F)(F)F)c(Cl)c2c1 (single isomer, unassigned) [Example 90c, [2-Azetidin-1-yl-4-chloro-3-(2,2,2-trifluoroethoxy)quinolin-6-yl](4-chlorophenyl)(1-methyl-1H-imidazol-5-yl)methanol]",–,–,–,200 nM,–
"COc1nc2ccc(C(O)(c3ccc(Cl)cc3)c3cncn3C)cc2c(Cl)c1OCC(F)(F)F (single isomer, unassigned) [Example 86c, [4-Chloro-2-methoxy-3-(2,2,2-trifluoroethoxy)quinolin-6-yl](4-chlorophenyl)(1-methyl-1H-imidazol-5-yl)methanol]",–,–,–,21 nM,–
"COc1nc2ccc(C(O)(c3ccc(C(F)(F)F)nc3)c3cncn3C)cc2c(Cl)c1OC(C)C (single isomer, unassigned) [Example 95b, [4-Chloro-2-methoxy-3-(1-methylethoxy)quinolin-6-yl](1-methyl-1H-imidazol-5-yl)[6-(trifluoromethyl)pyridin-3-yl]methanol]",–,–,–,61 nM,–
"COc1nc2ccc(C(O)(c3cnc(C)n3C)c3cnc(C)n3C)cc2c(Cl)c1CN1CCC(C(F)(F)F)CC1 [Example 111, (4-Chloro-2-methoxy-3-((4-(trifluoromethyl)piperidin-1-yl)methyl)quinolin-6-yl)bis(1,2-dimethyl-1H-imidazol-5-yl)methanol]",–,–,–,17 nM,–
"COc1nc2ccc(C(O)(c3cnc(C)n3C)C3CN(C(C)=O)C3)cc2c(Cl)c1CN1CCC(C(F)(F)F)CC1 (single isomer, unassigned) [Example 124c, 1-(3-((4-Chloro-2-methoxy-3-((4-(trifluoromethyl)piperidin-1-yl)methyl)quinolin-6-yl)(1,2-dimethyl-1H-imidazol-5-yl)(hydroxy)methyl)azetidin-1-yl)ethanone]",–,–,–,–,IC50 [1]: 35 nM
"CC(C)c1c(Cl)nc2ccc(C(O)(c3cccnc3)c3cccc(Cl)c3)cc2c1Cl (stereo not drawn) [Example 19, (3-Chlorophenyl) [2,4-dichloro-3-(1-methylethyl)quinolin-6-yl]pyridin-3-ylmethanol.TFA]",–,–,–,1300 nM,–
"COc1nc2ccc(C(O)(c3ccccc3)C3CCN(C(C)=O)CC3)cc2c(Cl)c1OC(C)C (single isomer, unassigned) [Example 84b, (1-Acetylpiperidin-4-yl)[4-chloro-2-methoxy-3-(1-methylethoxy)quinolin-6-yl]phenylmethanol]",–,–,–,5.4 nM,–
"COc1nc2ccc(C(O)(c3ccccc3)C3CCN(C(C)=O)CC3)cc2c(Cl)c1CC1CCOCC1 (stereo not drawn) [Example 4a, 1-(4-((4-Chloro-2-methoxy-3-((tetrahydro-2H-pyran-4-yl)methyl)quinolin-6-yl)(hydroxy)(phenyl)methyl)piperidin-1-yl)ethanone]",> 6 µM,24%,16 nM,–,–
"COc1nc2ccc(C(O)(c3sc(C)nc3C)c3cnnn3C)cc2c(Cl)c1C (single isomer, unassigned) [Example 13c, (4-Chloro-2-methoxy-3-methylquinolin-6-yl)(2,4-dimethylthiazol-5-yl)(1-methyl-1H-1,2,3-triazol-5-yl)methanol]",–,–,–,65 nM,–
"Cc1c(-c2ccc3c(cnn3C)c2)nc2ccc(C(O)(c3cccnc3)c3cccc(Cl)c3)cc2c1Cl (stereo not drawn) [Example 24, [4-Chloro-3-methyl-2-(1-methyl-1H-indazol-5-yl)quinolin-6-yl](3-chlorophenyl)pyridin-3-ylmethanol]",> 6 µM,29%,2000 nM,–,–
"Cn1cncc1C(O)(c1ccc(C(F)(F)F)nc1)c1ccc2nc(N3CCC3)c(OCc3ccccc3)c(Cl)c2c1 (stereo not drawn) [Example 31, [2-Azetidin-1-yl-3-(benzyloxy)-4-chloroquinolin-6-yl](1-methyl-1H-imidazol-5-yl)[6-(trifluoromethyl)pyridin-3-yl]methanol.TFA]",> 6 µM,-32%,27 nM,–,–
COc1nc2ccc([C@](O)(c3ccccc3)C3CCN(C(C)=O)CC3)cc2c(Cl)c1CC1CCOCC1 [Example 4c],> 6 µM,–,53 nM,–,"RORγt (LBD) Reporter Assay, % inhibition @ 6 μM [2]: −6%"

# Further lines, with some results ahead:
IC50 [2],inhibition at 6 µM [2],"Kd [3, 4]",Compound,IC50 ([1]; Homo sapiens),also measured
> 6 µM,-37%,1000 nM,"COc1nc2ccc(C(O)(c3ccc(C)nc3C)c3cnnn3C)cc2c(Cl)c1OCCN1CCCC1 (single isomer, unassigned) [Example 67b, [4-Chloro-2-methoxy-3-(2-pyrrolidin-1-ylethoxy)quinolin-6-yl](2,6-dimethylpyridin-3-yl)(1-methyl-1H-1,2,3-triazol-5-yl)methanol]",–,–
> 6 µM,32%,39 nM,"COc1nc2ccc(C(O)(c3ccc(C(F)(F)F)nc3)c3cncn3C)cc2c(Cl)c1CCC1CCN(C(C)=O)CC1 (stereo not drawn) [Example 32, {3-[2-(1-Acetylpiperidin-4-yl)ethyl]-4-chloro-2-methoxyquinolin-6-yl}(1-methyl-1H-imidazol-5-yl)[6-(trifluoromethyl)pyridin-3-yl]methanol]",–,–
> 6 µM,-32%,4800 nM,"COc1nc2ccc(C(O)(c3ccc(C(F)(F)F)nc3)c3cncn3C)cc2c(Cl)c1C1=CCN(C)CC1 (stereo not drawn) [Example 33, [4-Chloro-2-methoxy-3-(1-methyl-1,2,3,6-tetrahydropyridin-4-yl)quinolin-6-yl](1-methyl-1H-imidazol-5-yl)[6-(trifluoromethyl)pyridin-3-yl]methanol.TFA]",–,–
> 6 µM,28%,2200 nM,"COc1nc2ccc(C(O)(c3ccc(C)nc3C)c3cnnn3C)cc2c(Cl)c1OCCS(C)(=O)=O (single isomer, unassigned) [Example 70b, {4-Chloro-2-methoxy-3-[2-(methylsulfonyl)ethoxy]quinolin-6-yl}(2,6-dimethylpyridin-3-yl)(1-methyl-1H-1,2,3-triazol-5-yl)methanol]",–,–
> 6 µM,-1%,9 nM,"COc1nc2ccc(C(O)(c3cnc(C)n3C)c3cnc(C)n3C)cc2c(Cl)c1OCc1ccccc1 [Example 75, [3-(benzyloxy)-4-chloro-2-methoxyquinolin-6-yl][bis(1,2-dimethyl-1H-imidazol-5-yl)]methanol]",–,–
> 6 µM,–,–,"Cc1ccc(C(O)(c2ccc3nc(Cl)c(CC(F)(F)F)c(N4CCC4)c3c2)c2cnnn2C)c(C)n1 (single isomer, unassigned) [Example 238b, [4-(Azetidin-1-yl)-2-chloro-3-(2,2,2-trifluoroethyl)-6-quinolyl]-(2,6-dimethyl-3-pyridyl)-(3-methyltriazol-4-yl)methanol]",–,"RORγt (LBD) Reporter Assay, % inhibition [2]: 9%; Kd [3, 5]: 13000 nM"
> 6 µM,–,110 nM,"COc1nc2ccc(C(O)(c3ccc(C(F)(F)F)nc3)c3cncn3C)cc2c(Cl)c1OCc1cccnc1 (single isomer, unassigned) [Example 76c, [4-Chloro-2-methoxy-3-(pyridin-3-ylmethoxy)quinolin-6-yl](1-methyl-1H-imidazol-5-yl)[6-(trifluoromethyl)pyridin-3-yl]methanol]",–,"RORγt (LBD) Reporter Assay, % inhibition @ 6 μM [2]: −35%"
> 6 µM,–,–,"COc1nc2ccc(C(O)c3cnc(C)n3C)cc2c(Cl)c1OC(C)C (stereo not drawn) [Example 156, (4-chloro-3-isopropoxy-2-methoxyquinolin-6-yl)(1,2-dimethyl-1H-imidazol-5-yl)methanol]",–,"RORγt (LBD) Reporter Assay, % inhibition [2]: 34%; Kd [3, 5]: 3400 nM"
> 6 µM,–,–,"Cc1ncc(C(O)c2ccc3nc(Cl)c(OC(C)C)c(Cl)c3c2)n1C (stereo not drawn) [Example 172, (2,4-dichloro-3-isopropoxyquinolin-6-yl)(1,2-dimethyl-1H-imidazol-5-yl)methanol]",–,"RORγt (LBD) Reporter Assay, % inhibition [2]: 12%; Kd [3, 5]: 12000 nM"
> 6 µM,–,1200 nM,"COc1nc2ccc(C(O)(c3ccc(C(F)(F)F)nc3)c3cncn3C)cc2c(Cl)c1OCc1cccnc1 (single isomer, unassigned) [Example 76b, [4-Chloro-2-methoxy-3-(pyridin-3-ylmethoxy)quinolin-6-yl](1-methyl-1H-imidazol-5-yl)[6-(trifluoromethyl)pyridin-3-yl]methanol]",–,"RORγt (LBD) Reporter Assay, % inhibition @ 6 μM [2]: −17%"
> 6 µM,-9%,4900 nM,"COc1nc2ccc(C(O)(c3ccc(C)nc3C)c3cnnn3C)cc2c(Cl)c1OCCN(C)C (single isomer, unassigned) [Example 74b, {4-Chloro-3-[2-(dimethylamino)ethoxy]-2-methoxyquinolin-6-yl}(2,6-dimethylpyridin-3-yl)(1-methyl-1H-1,2,3-triazol-5-yl)methanol]",–,–
